Data: the supplement of paper PMC6045584
± gives the standard deviation of the averaged measurements.

How the values were obtained:
[1] = compound: CN1CC[C@H](c2c(O)cc(O)c3c(=O)cc(-c4ccccc4Cl)oc23)[C@H](O)C1 [FLAVOPIRIDOL]; assay: surviving fraction relative to DMSO-only wells; higher = less growth inhibition; conditions: exposure time: 5 days
Procedure, shortened: (§1)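 Log-phase tumour cell lines, 250–500 cells per well in 384-well plates, received inhibitors at 0.5, 1, 5, 10, 50, 100, 500 and 1000 nM continuously for five days, starting 24 hours after seeding. Viability was quantified with CellTiter-Glo luminescence and normalised to the median of DMSO-only wells to give surviving fraction. Three screens were run per line, and a line stayed in only with replicate Pearson r >0.7 and median Z' >0.3.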

[2] = compound: COc1cc2c(cc1O)CC[C@@H]1[C@@H]2CC[C@]2(C)[C@@H](O)CC[C@@H]12 [2-METHOXYESTRADIOL]; assay: as above; conditions: exposure time: 5 days
Procedure, shortened: as §1

Test System | surviving fraction ([1]; 0.5 nM) | surviving fraction ([1]; 1 nM) | surviving fraction ([1]; 5 nM) | surviving fraction ([1]; 10 nM) | surviving fraction ([1]; 50 nM) | surviving fraction ([1]; 100 nM) | surviving fraction ([1]; 500 nM) | surviving fraction ([1]; 1000 nM) | surviving fraction ([2]; 0.5 nM) | surviving fraction ([2]; 1 nM) | surviving fraction ([2]; 5 nM) | surviving fraction ([2]; 10 nM) | surviving fraction ([2]; 50 nM) | surviving fraction ([2]; 100 nM) | surviving fraction ([2]; 500 nM) | surviving fraction ([2]; 1000 nM)
HCC1395 BREAST | 1 ± 0.21 | 1.13 ± 0.062 | 1.2 ± 0.097 | 1.311 ± 0.006 | 1.3 ± 0.16 | 0.992 ± 0.14 | 0.51 ± 0.36 | 0.419 ± 0.19 | 0.926 ± 0.081 | 1.15 ± 0.08 | 1.14 ± 0.035 | 1.25 ± 0.085 | 1.24 ± 0.027 | 1.22 ± 0.072 | 1.17 ± 0.083 | 0.907 ± 0.088
HCC1806 BREAST | 0.833 ± 0.14 | 0.959 ± 0.059 | 1.03 ± 0.08 | 1.06 ± 0.062 | 0.586 ± 0.038 | 0.093 ± 0.0078 | 0.0207 ± 0.00058 | 0.0217 ± 0.00058 | 0.946 ± 0.076 | 1.02 ± 0.052 | 1.03 ± 0.083 | 1.11 ± 0.052 | 1.06 ± 0.053 | 1.15 ± 0.079 | 1.06 ± 0.11 | 0.808 ± 0.036
HCC1954 BREAST | 1.16 ± 0.0025 | 1.12 ± 0.063 | 1.49 ± 0.18 | 1.12 ± 0.23 | 0.361 ± 0.1 | 0.0465 ± 0.0057 | 0.0345 ± 0.0014 | 0.0318 ± 0.0039 | 0.93 ± 0.027 | 1.09 ± 0.072 | 1.049 ± 0.0014 | 1.05 ± 0.12 | 0.845 ± 0.019 | 0.742 ± 0.1 | 0.716 ± 0.034 | 0.515 ± 0.029
HCT15 LARGE INTESTINE | 1.06 ± 0.085 | 0.963 ± 0.12 | 0.991 ± 0.13 | 0.92 ± 0.12 | 0.45 ± 0.035 | 0.103 ± 0.013 | 0.0417 ± 0.0025 | 0.0417 ± 0.0015 | 0.947 ± 0.027 | 0.926 ± 0.028 | 0.959 ± 0.057 | 0.914 ± 0.04 | 1.01 ± 0.021 | 0.929 ± 0.1 | 0.0957 ± 0.014 | 0.0547 ± 0.0085
HELA CERVIX | 0.987 ± 0.041 | 0.962 ± 0.045 | 1.03 ± 0.086 | 0.936 ± 0.018 | 1.16 ± 0.053 | 0.691 ± 0.027 | 0.0347 ± 0.001 | 0.0268 ± 0.00029 | 0.982 ± 0.043 | 1 ± 0.031 | 0.985 ± 0.013 | 0.938 ± 0.04 | 1.06 ± 0.064 | 1.11 ± 0.077 | 0.593 ± 0.045 | 0.0965 ± 0.0045
HOS BONE | 1.02 ± 0.018 | 1.03 ± 0.011 | 1.034 ± 0.01 | 1.04 ± 0.019 | 0.9813 ± 0.0095 | 0.352 ± 0.02 | 0.0367 ± 0.0072 | 0.035 ± 0.003 | 0.996 ± 0.013 | 0.992 ± 0.029 | 1.02 ± 0.02 | 1.004 ± 0.0095 | 1.04 ± 0.015 | 1.05 ± 0.025 | 0.96 ± 0.02 | 0.158 ± 0.011
HOSMNG BONE | 0.977 ± 0.05 | 0.991 ± 0.049 | 1 ± 0.011 | 0.981 ± 0.024 | 1.01 ± 0.079 | 0.498 ± 0.021 | 0.059 ± 0.007 | 0.0577 ± 0.0065 | 0.97 ± 0.12 | 0.966 ± 0.034 | 0.957 ± 0.1 | 1 ± 0.046 | 1.05 ± 0.11 | 1.03 ± 0.084 | 0.652 ± 0.053 | 0.168 ± 0.011
HSSYII SYNOVIAL | 0.999 ± 0.021 | 0.993 ± 0.025 | 1.01 ± 0.083 | 0.907 ± 0.037 | 0.564 ± 0.034 | 0.145 ± 0.017 | 0.0215 ± 0.0005 | 0.0212 ± 0.00058 | 0.901 ± 0.024 | 0.926 ± 0.01 | 0.923 ± 0.043 | 0.997 ± 0.046 | 0.915 ± 0.018 | 0.764 ± 0.013 | 0.139 ± 0.0043 | 0.0593 ± 0.0049
HT1080 SOFT TISSUE | 1.05 ± 0.027 | 1.05 ± 0.02 | 1.03 ± 0.029 | 1.016 ± 0.0044 | 0.4973 ± 0.0011 | 0.193 ± 0.024 | 0.061 ± 0.003 | 0.0633 ± 0.0021 | 1.01 ± 0.011 | 1.02 ± 0.018 | 1.05 ± 0.016 | 0.987 ± 0.058 | 1.01 ± 0.043 | 0.999 ± 0.033 | 0.756 ± 0.049 | 0.313 ± 0.028
HU09 BONE | 1.06 ± 0.12 | 1.08 ± 0.037 | 1.22 ± 0.14 | 1.08 ± 0.082 | 0.638 ± 0.051 | 0.0337 ± 0.0032 | 0.024 | 0.025 ± 0.0017 | 1.02 ± 0.055 | 0.959 ± 0.03 | 1.02 ± 0.024 | 1.1 ± 0.1 | 1.12 ± 0.081 | 1.08 ± 0.095 | 0.512 ± 0.015 | 0.159 ± 0.029
HUO3N1 BONE | 1.07 ± 0.016 | 1 ± 0.022 | 1.14 ± 0.033 | 1.12 ± 0.03 | 1.26 ± 0.052 | 0.929 ± 0.077 | 0.0483 ± 0.0011 | 0.039 ± 0.0061 | 1.01 ± 0.012 | 0.994 ± 0.037 | 1.05 ± 0.05 | 1.03 ± 0.057 | 1.07 ± 0.022 | 1.02 ± 0.041 | 0.87 ± 0.059 | 0.537 ± 0.03
JIMT1 BREAST | 1 ± 0.012 | 1.01 ± 0.033 | 1.05 ± 0.047 | 1.02 ± 0.035 | 0.809 ± 0.019 | 0.2 ± 0.029 | 0.0467 ± 0.0053 | 0.0375 ± 0.0027 | 0.985 ± 0.032 | 1.04 ± 0.029 | 1.03 ± 0.023 | 1 ± 0.031 | 1.09 ± 0.013 | 1.05 ± 0.021 | 0.762 ± 0.053 | 0.403 ± 0.045
JURKAT HAEMATOPOIETIC AND LYMPHOID TISSUE | 1.04 ± 0.018 | 1.07 ± 0.046 | 1.05 ± 0.026 | 1.04 ± 0.042 | 0.708 ± 0.022 | 0.119 ± 0.0035 | 0.031 ± 0.001 | 0.0303 ± 0.0011 | 1.08 ± 0.021 | 1.08 ± 0.014 | 1.03 ± 0.005 | 1.02 ± 0.033 | 1.02 ± 0.032 | 0.993 ± 0.016 | 0.043 ± 0.001 | 0.042 ± 0.001
KPD BONE | 0.881 ± 0.31 | 1.01 ± 0.074 | 1.08 ± 0.048 | 0.997 ± 0.03 | 0.525 ± 0.035 | 0.101 ± 0.015 | 0.031 ± 0.0017 | 0.0277 ± 0.006 | 0.992 ± 0.043 | 0.964 ± 0.04 | 1.02 ± 0.066 | 1.03 ± 0.014 | 1.08 ± 0.031 | 1.07 ± 0.024 | 0.784 ± 0.047 | 0.551 ± 0.026
LM7 BONE | 1.06 ± 0.022 | 1.08 ± 0.096 | 1.15 ± 0.11 | 1.1 ± 0.091 | 0.824 ± 0.031 | 0.446 ± 0.016 | 0.0593 ± 0.0038 | 0.0543 ± 0.0029 | 0.969 ± 0.063 | 1.03 ± 0.016 | 1.06 ± 0.022 | 1.01 ± 0.056 | 1.12 ± 0.077 | 1.03 ± 0.13 | 0.5347 ± 0.0023 | 0.264 ± 0.024
LNCAP PROSTATE | 0.884 ± 0.014 | 0.917 ± 0.0082 | 0.849 ± 0.038 | 0.84 ± 0.015 | 0.409 ± 0.071 | 0.028 ± 0.0036 | 0.043 ± 0.0027 | 0.0397 ± 0.0011 | 1.01 ± 0.039 | 0.922 ± 0.039 | 0.975 ± 0.094 | 0.901 ± 0.092 | 0.884 ± 0.13 | 0.809 ± 0.091 | 0.681 ± 0.033 | 0.208 ± 0.0072
MCF7 BREAST | 0.982 ± 0.083 | 0.973 ± 0.031 | 0.979 ± 0.032 | 0.865 ± 0.031 | 0.816 ± 0.038 | 0.167 ± 0.011 | 0.163 ± 0.024 | 0.157 ± 0.0056 | 0.846 ± 0.015 | 0.837 ± 0.017 | 0.857 ± 0.0097 | 0.8506 ± 0.0053 | 0.903 ± 0.027 | 0.924 ± 0.083 | 0.943 ± 0.048 | 0.685 ± 0.086
MDAMB134 BREAST | 1 ± 0.019 | 0.991 ± 0.041 | 1.09 ± 0.037 | 1.13 ± 0.088 | 1.52 ± 0.23 | 0.977 ± 0.15 | 0.303 ± 0.016 | 0.2765 ± 0.0021 | 0.832 ± 0.24 | 0.884 ± 0.12 | 0.777 ± 0.041 | 0.916 ± 0.18 | 0.755 ± 0.097 | 0.717 ± 0.12 | 0.56 ± 0.0085 | 0.619 ± 0.15
MDAMB157 BREAST | 0.999 ± 0.025 | 0.921 ± 0.096 | 0.986 ± 0.073 | 0.927 ± 0.018 | 0.769 ± 0.022 | 0.3 ± 0.027 | 0.0433 ± 0.016 | 0.0383 ± 0.0076 | 0.873 ± 0.086 | 0.947 ± 0.022 | 0.935 ± 0.05 | 0.983 ± 0.12 | 0.959 ± 0.012 | 0.932 ± 0.013 | 0.76 ± 0.055 | 0.31 ± 0.066
MDAMB231 BREAST | 0.99 ± 0.022 | 0.9902 ± 0.0098 | 1.02 ± 0.042 | 0.995 ± 0.039 | 0.833 ± 0.018 | 0.372 ± 0.028 | 0.0403 ± 0.0017 | 0.0366 ± 0.0017 | 0.964 ± 0.0098 | 0.949 ± 0.011 | 0.9675 ± 0.0069 | 0.963 ± 0.018 | 0.983 ± 0.027 | 0.989 ± 0.027 | 0.545 ± 0.025 | 0.258 ± 0.012
MDAMB361 BREAST | 0.919 ± 0.18 | 0.814 ± 0.066 | 0.841 ± 0.05 | 0.861 ± 0.13 | 0.937 ± 0.13 | 0.719 ± 0.039 | 0.223 ± 0.021 | 0.229 ± 0.022 | 0.843 ± 0.082 | 0.827 ± 0.11 | 0.865 ± 0.046 | 0.829 ± 0.11 | 0.788 ± 0.043 | 0.8 ± 0.083 | 0.666 ± 0.014 | 0.701 ± 0.081
